Here are results for one compound from US12064471B2, “Compositions comprising sulforaphane or a sulforaphane precursor and a mushroom extract or powder” (NUTRAMAX LABORATORIES, INC., priority 2012, dated 2024).

The test system of experiment [1] is myrosinase. The experiment in a line: Conversion of glucoraphanin to sulforaphane by myrosinase, HPLC (Example 4). It is filed as biochemical. To be noted: Part 2, 250 mg broccoli seed extract. On the procedure:
A two-part experiment was conducted to further elucidate the role of ascorbic acid in modulating myrosinase activity. […] A control sample contained no ascorbic acid, and the enzymatic conversion proceeded unassisted by a co-factor. PART 1. […] PART 2. While keeping the amount of broccoli seed extract fixed at 250 mg, the concentration of ascorbic acid was varied from 0.4 mmol/Liter to 3.8 mmol/Liter.

In experiment [2] the test system is myrosinase. Briefly: Conversion of glucoraphanin to sulforaphane in Simulated Intestinal Fluid (Example 5). It is filed as biochemical, broccoli. Conditions: 0.25 to 1.00 mmol/Liter ascorbic acid, 38° C., 2 hours. The method, then:
Simulated Intestinal Fluid (SIF) powder, a commercially supplied concentrate closely approximating the human intestinal content in terms of composition, pH and ionic strength, was used. The experiment utilized a USP Dissolution Apparatus 2 (paddles), where into six dissolution vessels 500 mL of Simulated Intestinal Fluid was dispensed, along with 150 mg of freeze-dried broccoli sprout powder as a source of myrosinase. […] Aliquots were withdrawn every 15 minutes and assayed for sulforaphane.

The structures appear in SMILES notation.

Regarding `O=C1O[C@H]([C@@H](O)CO)C(O)=C1O` [Ascorbic Acid, Ascorbic acid], the “Ascorbic acid concentration up to which myrosinase-promoted conversion increases apparently linearly, followed by leveling off” value in experiment [1] is “about 2 mmol/L”. Further, the “Sulforaphane yield versus ascorbic acid concentration” value in experiment [2] is “direct correlation between larger yield of sulforaphane and higher concentrations of ascorbic acid”.
